Assay results from patent US20250326755A1, “CYCLIC QUATERNARY AMMONIUM SALT COMPOUND, AND PREPARATION METHOD THEREFOR AND USE THEREOF” (YICHANG HUMANWELL PHARMACEUTICAL CO., LTD., priority 2022, published 2025).
Read-outs that look alike come from different tables or passages of the source.

What was measured:
Format in all cases: in vivo, SD rats
[1] = test system: rat subcutaneous infiltration model; assay: Local anesthetic effect by subcutaneous infiltration, Von Frey needle stimulation of back skin; conditions: 1 mg/ml, 0.5 mL subcutaneous injection on the back, 10 rats
Method: After shaving and disinfecting the backs of SD rats (half male and half female) weighing 190-210 grams, a circle with a diameter of approximately 1.5 cm was drawn on one side of the exposed skin. 0.5 mL of a solution containing the drug was subcutaneously injected into the skin in the center. The solution, using physiological saline as the solvent, contained either 2 mg/ml bupivacaine hydrochloride or 1 mg/ml concentration of the compounds listed in Table 2 of the present application. Each group consisted of 10 rats. A Von Frey fiber with a 100-gram force was attached to a needle for local skin stimulation. One minute after drug administration, the rat's response to the stimulus was measured. Testing was conducted at 6 different points within the marked area of drug administration. Skin contraction, avoidance, and other behaviors following stimulation were observed and recorded. Three points in the center and three points around the circle were stimulated, and the number of skin contraction and avoidance behaviors was recorded as N6. […] Each compound was tested on 10 rats.

sciatic nerve of the rat = test system: sciatic nerve of the rat
Method: The experimental methods described in the following test examples were standard procedures unless otherwise specified. All experimental animals used in the following test examples were SD rats purchased from Hunan Slac Jingda Experimental Animal Co., Ltd. Other test materials, unless stated otherwise, were purchased from conventional biochemical reagent suppliers.
The compounds listed in Table 1 and levobupivacaine hydrochloride (positive control) were administered to three groups of rats fully acclimated to the experimental environment, with one rat per group.
Solution Preparation: 2 mg/ml Levobupivacaine Hydrochloride Injection: 2.670 ml of 7.5 mg/ml levobupivacaine hydrochloride injection (Batch No. 92S0702) was pipetted into a 10 ml volumetric flask. 0.9% NaCl solution was added until the meniscus was level with the calibration line, and the solution was inverted and mixed thoroughly, to prepare 2 mg/ml levobupivacaine hydrochloride injection. 2 mg/ml Example Compound Solution: 6.6 mg of the example compound was accurately weighed and dissolved in 3.3 ml of 0.9% NaCl solution to prepare a 2 mg/ml example compound solution.
Both the positive control and the example compound were administered to each rat at 2 mg/ml, with an administration volume of 5 ml/kg, in a single injection near the sciatic nerve of the rat. After the administration, the rat was placed on a preheated hot plate (50±0.1° C.) of an intelligent hot plate instrument. […] The maximum thermal latency was controlled at 60 s. […] Any urine or feces on the hot plate was promptly cleaned and dried before subsequent tests.
Thermal latency results were expressed as the maximum proportional effect (MPE), calculated using the following formula.
Wherein: B represented the basal thermal latency of the rats; P was the maximum thermal latency C was the observed thermal latency at the detection time point.
Measurements were considered invalid if the MPE was less than 50% of the maximum proportional effect. If two consecutive measurements yielded an MPE of less than […], the experiment was terminated.

[2] = test system: rat subcutaneous infiltration model; assay: Local anesthetic effect by subcutaneous infiltration, Von Frey needle stimulation of back skin

## CCCC[N+]1(CCCCOc2c(C)cc(C)cc2C)CCCC[C@H]1C(=O)Nc1c(C)cccc1C (stereo partly drawn) [Compound of Example 25, (2S)-1-Butyl-2-((2,6-dimethylphenyl)carbamoyl)-1-(4-(symmetricalmesityloxy)butyl)piperidine bromide]
[1]
  Duration/h: 72 to 96 h
  Onset Time/min: 1 min
Sciatic nerve of the rat; 2 mg/ml, 5 ml/kg, single injection near the sciatic nerve of the rat, hot plate 50±0.1° C.
  Onset Time/min: 1 min
[2]; Drug Concentration 0.3 mmol/L
  Duration/h: 24 to 48 h
[2]; Drug Concentration 1 mmol/L
  Duration/h: 48 to 72 h

## CCCC[N+]1(CCCCOc2ccccc2C)CCCC[C@H]1C(=O)Nc1c(C)cccc1C (stereo partly drawn) [Compound of Example 30, (2S)-1-Butyl-2-((2,6-dimethylphenyl)carbamoyl)-1-(4-(o-tolyloxy)butyl)piperidine bromide]
[1]
  Duration/h: 72 to 96 h
  Onset Time/min: 1 min
Sciatic nerve of the rat; rat, in vivo
  Duration/h: 72 to 96 h
  Onset Time/min: 1 min
[2]; Drug Concentration 0.3 mmol/L
  Duration/h: 24 to 48 h
[2]; Drug Concentration 1 mmol/L
  Duration/h: 48 to 72 h

## CCCC[N+]1(CCCCOc2ccccc2)CCCC[C@H]1C(=O)Nc1ccc(F)cc1 (stereo partly drawn) [Compound of Example 39, (2S)-1-Butyl-2-((4-fluorophenyl)carbamoyl)-1-(4-phenoxybutyl)piperidine bromide]
[1]
  Duration/h: 72 to 96 h
  Onset Time/min: 1 min
Sciatic nerve of the rat; rat, in vivo
  Duration/h: 72 to 96 h
  Onset Time/min: 1 min
[2]; Drug Concentration 0.3 mmol/L
  Duration/h: 24 to 48 h
[2]; Drug Concentration 1 mmol/L
  Duration/h: 48 to 72 h
